Experimental data taken from patent US20120045433A1, “COMBINATION THERAPY” (priority 2010, published 2012).
Where a name gives a salt, the structure may show the parent alone.

Legend:
[1] = tested on: human HT-29 cell xenografts; test: Antitumor activity (tumor growth inhibition, regression) in mice with human HT-29 colorectal cancer xenografts; type: in vivo; conditions: for % Tumor Growth Inhibition: Compound I 25 mg/kg bid, cetuximab 40 mg/kg 2x/wk, irinotecan HCl 40 mg/kg q4d x5, alone or combined
Description: (§1) Mice were implanted with human HT-29 cell xenografts. The mice, cell line used, and implantation are described below.
Tumor measurements were taken once or twice per week. All animals were individually followed throughout the experiment.

[2] = tested on: human HT-29 cell xenografts; test: Assessment of survival (increased life span) in mice with human HT-29 xenografts; type: in vivo; conditions: for 50% Treatment Days: median survival, Kaplan Meier, vehicle 30 days, same doses
Description: as §1
For survival assessment, the percent of increased life space (ILS) was calculated as: 100×[(median survival day of treated group−median survival day of control group)/median survival day of control group]. Median survival was determined utilizing Kaplan Meier survival analysis. […] Differences between groups were considered significant when the probability value (p) was ≦0.05.

[3] = number of mice out of 10 per group, same doses

Row | SMILES | Mean Tumor Volume (mm^3) End Study ([1]; Compound I 25 mg/kg bid po, cetuximab 40 mg/kg 2x/wk ip, irinotecan HCl 40 mg/kg q4d x5 ip, alone or combined, end of study day 32) [mm^3] | % Tumor Growth Inhibition [1] [%] | Mean Tumor Volume (mm^3) Start Study ([1]; baseline at start of treatment (day 11 post implant)) [mm^3] | % Inhibition end of study Day: 32 ([1]; same doses) [%] | % T/C end of study Day: 32 ([1]; same doses) [%] | % ILS ([2]; increased life span versus vehicle, Compound I 25 mg/kg bid, cetuximab 40 mg/kg 2x/wk, irinotecan HCl 40 mg/kg q4d x5, alone or combined) [%] | 50% Treatment Days [2] [days] | Complete Regression [1, 3] | Partial Regression [1, 3]
1 | CCCS(=O)(=O)Nc1ccc(F)c(C(=O)c2c[nH]c3ncc(-c4ccc(Cl)cc4)cc23)c1F [Compound I, propane-1-sulfonic acid {3-[5-(4-chlorophenyl)-1H-pyrrolo[2,3-b]pyridine-3-carbonyl]-2,4-difluoro-phenyl}-amide] | 563.72 | 76 | 136.24 | 76 | 24 | 80 | 54 | – | –
2 | CCc1c2c(nc3ccc(OC(=O)N4CCC(N5CCCCC5)CC4)cc13)-c1cc3c(c(=O)n1C2)COC(=O)[C@]3(O)CC [Irinotecan HCl, irinotecan hydrochloride, reference compound] | – | 59 | – | 59 | 41 | – | 35 | 0 | 0
